According to patent US20230158025A1 (UNIVERSITY OF UTAH RESEARCH FOUNDATION, priority 2020, published 2023):
Like-named read-outs stand apart in the source and are kept apart here.

Key:
[1] = aqueous kinetic solubility
[2] = molecular target: recombinant mouse GALK1 (Mus musculus, UniProt Q9R0N0); assay: mGALK1 biochemical activity assay (Kinase-Glo Plus, ATP depletion)
In short: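 Recombinant GALK1 (5 nM) with 100 μM galactose; GALK1 turnover read as ATP depletion by Kinase-Glo Plus luminescence. Reaction ran 1 h at room temperature before detection reagent was added.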

[3] = PAMPA permeability
[4] = rat microsomal stability (RLM)
[5] = molecular target: recombinant human GALK1 (Homo sapiens, UniProt P51570); assay: hGALK1 biochemical activity assay (Kinase-Glo Plus, ATP depletion)
Sequence of recombinant human GALK1 (P51570 whole entry): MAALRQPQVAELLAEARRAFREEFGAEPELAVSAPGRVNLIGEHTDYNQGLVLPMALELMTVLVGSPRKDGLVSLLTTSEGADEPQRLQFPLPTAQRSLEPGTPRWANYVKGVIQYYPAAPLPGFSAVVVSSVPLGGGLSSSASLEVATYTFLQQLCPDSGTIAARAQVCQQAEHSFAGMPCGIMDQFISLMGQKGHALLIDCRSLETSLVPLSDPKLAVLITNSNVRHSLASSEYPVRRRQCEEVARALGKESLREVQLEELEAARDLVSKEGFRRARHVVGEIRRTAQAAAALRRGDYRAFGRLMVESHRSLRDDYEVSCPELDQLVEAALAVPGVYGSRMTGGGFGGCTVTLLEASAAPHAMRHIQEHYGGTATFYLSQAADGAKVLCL
In short: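 Turnover is measured as ATP depletion by Kinase-Glo Plus luminescence after a 1 h room-temperature reaction. Compounds span 11 concentrations, 57.4 μM–0.97 nM, in final 20 mM HEPES pH 8.0 with 5 mM MgCl2. The substrate solution held 35 μM ATP; the added solution held 5 nM human or mouse GALK1 and 100 μM galactose.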

[6] = Tables 2-15, 35 μM ATP, 100 μM galactose, 1 h, bracketed figure after some values is undefined and not reported, read-out: mGALK IC50
[7] = recombinant mouse GALK1, Kinase-Glo Plus ATP depletion, read-out: mGALK
[8] = Tables 2-15, 35 μM ATP, 100 μM galactose, 1 h, bracketed figure after some values (e.g. −1.2) is undefined and not reported, read-out: hGALK IC50
[9] = recombinant human GALK1, Kinase-Glo Plus ATP depletion, read-out: hGALK

Sequence of recombinant mouse GALK1 (Q9R0N0 whole entry): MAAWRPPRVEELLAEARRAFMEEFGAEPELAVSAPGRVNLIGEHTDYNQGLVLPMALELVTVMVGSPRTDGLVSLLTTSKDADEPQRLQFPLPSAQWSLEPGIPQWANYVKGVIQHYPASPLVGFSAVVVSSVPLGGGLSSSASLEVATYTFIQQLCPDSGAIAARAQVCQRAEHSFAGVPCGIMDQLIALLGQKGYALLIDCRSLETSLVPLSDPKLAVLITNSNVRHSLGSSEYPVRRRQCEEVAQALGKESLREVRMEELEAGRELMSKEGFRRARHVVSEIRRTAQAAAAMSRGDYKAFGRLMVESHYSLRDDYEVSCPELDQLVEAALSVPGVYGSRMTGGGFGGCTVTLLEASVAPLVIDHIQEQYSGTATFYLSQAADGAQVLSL

Sol. ([1]; aqueous kinetic solubility) [µg/mL]	IC50 [2, 6] [µM]	IC50 [2, 7] [µM]	Perm. (1 × 10^−6 cm/sec) ([3]; PAMPA)	Metab. Stabil. (m) ([4]; microsomal stability half-life)	IC50 [5, 8] [µM]	IC50 [5, 9] [µM]	IC50 ([2]; recombinant mouse GALK1, Kinase-Glo Plus ATP depletion, bracketed figure in the cell, e.g. (−1.2), is not defined in the text shown, read-out: mGALK) [µM]	Metab. Stabil. (m) ([4]; microsomal stability half-life, minutes)	IC50 ([5]; recombinant human GALK1, Kinase-Glo Plus ATP depletion, bracketed figure in the cell, e.g. (−1.2), is not defined in the text shown, read-out: hGALK) [µM]	Sol. [1] [µg/mL]	Perm. (1 × 10^−6 cm/sec) [3]	Metab. Stabil. (m) ([4]; microsomal half-life)	SMILES
<1	9.68	9.68	<3.7 1 × 10^−6 cm/sec	>30	3.06	3.06	–	–	–	–	–	–	CC1=C(C(=O)Nc2nnc(-c3cccnc3)s2)C(c2ccccc2Cl)N=C(Nc2nc3ccccc3o2)N1 (centres unmarked) [Compound 180, 2-(benzo[d]oxazol-2-ylamino)-4-(2-chlorophenyl)-6-methyl-N-(5-(pyridin-3-yl)-1,3,4-thiadiazol-2-yl)-1,4-dihydropyrimidine-5-carboxamide]
–	–	6.85	–	–	–	2.17	–	–	–	35.7	2.2 1 × 10^−6 cm/sec	>30	CC1=C(C(=O)Nc2cc(C(=O)O)ccc2F)C(c2ccccc2Cl)N=C(Nc2nc3ccc(F)cc3o2)N1 (centres unmarked) [Compound 30, 3-(4-(2-chlorophenyl)-2-((6-fluorobenzo[d]oxazol-2-yl)amino)-6-methyl-1,4-dihydropyrimidine-5-carboxamido)-4-fluorobenzoic acid]
–	–	21.7	–	–	–	9.68	–	–	–	<1	<4.4 1 × 10^−6 cm/sec	>30	COc1ccc2nc(NC3=NC(c4ccccc4Cl)C(C(=O)Nc4nnc(-c5cccnc5)s4)=C(C)N3)oc2c1 (centres unmarked) [Compound 93, 4-(2-chlorophenyl)-2-((6-methoxybenzo[d]oxazol-2-yl)amino)-6-methyl-N-(5-(pyridin-3-yl)-1,3,4-thiadiazol-2-yl)-1,4-dihydropyrimidine-5-carboxamide]
15.63	–	6.85	142.4 1 × 10^−6 cm/sec	17.76	–	1.09	–	–	–	–	–	–	CC1=C(C(=O)NCc2cnn(C)c2)C(c2ccc(Cl)cc2Cl)N=C(Nc2nc3cccc(N)c3o2)N1 (centres unmarked) [Compound 123, 2-((7-aminobenzo[d]oxazol-2-yl)amino)-4-(2,4-dichlorophenyl)-N-((1-methyl-1H-pyrazol-4-yl)methyl)-6-methyl-1,4-dihydropyrimidine-5-carboxamide]

Second part, the compound before the results:

SMILES	Sol. ([1]; aqueous kinetic solubility) [µg/mL]	IC50 [2, 6] [µM]	IC50 [2, 7] [µM]	Perm. (1 × 10^−6 cm/sec) ([3]; PAMPA)	Metab. Stabil. (m) ([4]; microsomal stability half-life)	IC50 [5, 8] [µM]	IC50 [5, 9] [µM]	IC50 ([2]; recombinant mouse GALK1, Kinase-Glo Plus ATP depletion, bracketed figure in the cell, e.g. (−1.2), is not defined in the text shown, read-out: mGALK) [µM]	Metab. Stabil. (m) ([4]; microsomal stability half-life, minutes)	IC50 ([5]; recombinant human GALK1, Kinase-Glo Plus ATP depletion, bracketed figure in the cell, e.g. (−1.2), is not defined in the text shown, read-out: hGALK) [µM]	Sol. [1] [µg/mL]	Perm. (1 × 10^−6 cm/sec) [3]	Metab. Stabil. (m) ([4]; microsomal half-life)
CC1=C(C(=O)Nc2ccc(CN3CCOCC3)cc2)C(c2ccccc2Cl)N=C(Nc2nc3ccccc3o2)N1 (centres unmarked) [Compound 183, 2-(benzo[d]oxazol-2-ylamino)-4-(2-chlorophenyl)-6-methyl-N-(4-(morpholinomethyl)phenyl)-1,4-dihydropyrimidine-5-carboxamide]	<1	9.68	9.68	120.4 1 × 10^−6 cm/sec	22.3	5.44	5.44	–	–	–	–	–	–
CN(C)CCNC(=O)C1CC(=O)C2=C(C1)NC(Nc1nc3ccccc3o1)=NC2c1ccccc1Cl (centres unmarked) [Compound 284, 2-(benzo[d]oxazol-2-ylamino)-4-(2-chlorophenyl)-N-(2-(dimethylamino)ethyl)-5-oxo-1,4,5,6,7,8-hexahydroquinazoline-7-carboxamide]	61.78	–	–	<9.8 1 × 10^−6 cm/sec	–	–	–	12.2	>30	12.2	–	–	–
CC1=C(C(=O)Nc2ncc(CO)s2)C(c2ccccc2Cl)N=C(Nc2nc3ccccc3o2)N1 (centres unmarked) [Compound 193, 2-(benzo[d]oxazol-2-ylamino)-4-(2-chlorophenyl)-N-(5-(hydroxymethyl)thiazol-2-yl)-6-methyl-1,4-dihydropyrimidine-5-carboxamide]	<1	19.3	19.3	161.4 1 × 10^−6 cm/sec	>30	12.2	12.2	–	–	–	–	–	–
